Patent US11124758B2, “Bacteria culture medium and applications thereof” (priority 2013, dated 2021)
Read-outs that look alike come from different tables or passages of the source.

Assays:
[1] = 4° C., cited from earlier work
[2] = 4° C.; cited from earlier work
[3] = system: E. coli DH5α strain; experiment: Shelf life test of antibiotic premixed in culture medium: suppression of E. coli growth after storage; format: cell-based; conditions: for shelf life of culture media containing the antibiotic: 100 μg/ml, LB medium, storage at 4° C.; for suppression of growth of E. coli DH5α after storage: 6, 12, 18 and 24 months at 4° C.
[4] = in human body; cited from earlier work
[5] = less than 25° C.; cited from earlier work
[6] = 100 μg/ml or 1 mg/ml in LB liquid and LB agar plate medium, two months of storage at 4° C., incubated overnight at 37° C.
[7] = 10 mg/ml in LB liquid and LB agar plate medium, three months of storage at 4° C.
[8] = 100 mg/ml in LB liquid and LB agar plate medium, four months of storage at 4° C.

CC1(C)S[C@@H]2[C@H](NC(=O)[C@H](N)c3ccccc3)C(=O)N2[C@H]1C(=O)O [ampicillin]
time in which activity reduces by 10% ([1]; dissolved in glucose injection solution): around 1 hour
time in which activity reduces by 10% ([1]; dissolved in water or physiological saline (0.9% sodium chloride)): 2 to 3 days
time liquid culture medium and semi-solid agar culture plate medium containing the antibiotic can be kept [2]: about one
suppression of E. coli growth after storage [3, 6]: unable to suppress E. coli growth completely
shelf life of culture media containing the antibiotic [3]: no more than two
suppression of E. coli growth after storage [3, 7]: unable to suppress E. coli growth completely
suppression of E. coli growth after storage [3, 8]: unable to suppress E. coli growth completely

CC1(C)S[C@@H]2[C@H](NC(=O)Cc3ccccc3)C(=O)N2[C@H]1C(=O)O.c1ccc(CCNCc2ccccc2)cc1 [benethamine penicillin]
suppression of growth of E. coli DH5α after storage ([3]; 5 and 25 mg/ml, M9 minimal liquid and agar plate medium): able to completely suppress the growth
suppression of growth of E. coli DH5α after storage ([3]; 5 and 25 mg/ml, TB liquid and TB agar plate medium): able to completely suppress the growth

CC1(C)S[C@@H]2[C@H](NC(=O)Cc3ccccc3)C(=O)N2[C@H]1C(=O)O.CC1(C)S[C@@H]2[C@H](NC(=O)Cc3ccccc3)C(=O)N2[C@H]1C(=O)O.c1ccc(CNCCNCc2ccccc2)cc1 [benzathine benzylpenicillin]
duration of medicine effect [4]: 3-4 weeks
suppression of growth of E. coli DH5α after storage ([3]; 0.5 and 2.5 mg/ml, LB liquid and LB agar plate medium): able to completely suppress the growth
suppression of growth of E. coli DH5α after storage ([3]; 0.5 and 2.5 mg/ml, SOC liquid and SOC agar plate medium): able to completely suppress the growth

CC1(C)S[C@@H]2[C@H](NC(=O)C(C(=O)O)c3ccccc3)C(=O)N2[C@H]1C(=O)O (stereo partly drawn) [carbenicillin]
suppression of E. coli growth after storage [3, 6]: unable to suppress E. coli growth completely
shelf life of culture media containing the antibiotic [3]: no more than two
suppression of E. coli growth after storage [3, 7]: unable to suppress E. coli growth completely
suppression of E. coli growth after storage [3, 8]: unable to suppress E. coli growth completely

CC(=O)OCC1=C(C(=O)O)N2C(=O)[C@@H](NC(=O)CSc3ccncc3)[C@H]2SC1.CC(=O)OCC1=C(C(=O)O)N2C(=O)[C@@H](NC(=O)CSc3ccncc3)[C@H]2SC1.c1ccc(CNCCNCc2ccccc2)cc1 [cephapirin benzathine]
time injection suspension can be stored stably [5]: ≤ 36 months
suppression of growth of E. coli DH5α after storage ([3]; 0.25 and 1 mg/ml, M9 minimal liquid and agar plate medium): able to completely suppress the growth
suppression of growth of E. coli DH5α after storage ([3]; 0.25 and 1 mg/ml, YT liquid and YT agar plate medium): able to completely suppress the growth

Cc1onc(-c2ccccc2Cl)c1C(=O)N[C@@H]1C(=O)N2[C@@H]1SC(C)(C)[C@@H]2C(=O)O.Cc1onc(-c2ccccc2Cl)c1C(=O)N[C@@H]1C(=O)N2[C@@H]1SC(C)(C)[C@@H]2C(=O)O.c1ccc(CNCCNCc2ccccc2)cc1 [cloxacillin benzathine]
suppression of growth of E. coli DH5α after storage ([3]; 0.5 and 2.5 mg/ml, YPD liquid and YPD agar plate medium): able to completely suppress the growth
suppression of growth of E. coli DH5α after storage ([3]; 0.5 and 2.5 mg/ml, YT liquid and YT agar plate medium): able to completely suppress the growth

CC1(C)S[C@@H]2[C@H](NC(=O)Cc3ccccc3)C(=O)N2[C@H]1C(=O)O.CCN(CC)CCOC(=O)c1ccc(N)cc1 [procaine penicillin]
duration of medicine effect [4]: ≤ 48 h
suppression of growth of E. coli DH5α after storage ([3]; 10, 40 and 80 mg/ml, LB liquid and LB agar plate medium): able to completely suppress the growth
suppression of growth of E. coli DH5α after storage ([3]; 10, 40 and 80 mg/ml, SOC liquid and SOC agar plate medium): able to completely suppress the growth
